pIC50: −log10 of the molar value. Where two headings read alike, the source gives them in different places.
How the values were obtained:
Format in all cases: cell-based
[1] = system: PBMC from healthy human donors; assay: T cell proliferation assay (PHA-stimulated human PBMC, BrdU ELISA); conditions: PHA-stimulated human PBMC, 48 hours, column D, read-out: IC50 (Tcell proliferation)
Summary of the method: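 Healthy-donor PBMC isolated on Ficoll, seeded at 1×10⁵ cells/well in RPMI with 10% dialysed FCS, stimulated with 2 μg/ml PHA in presence of test compound. Proliferation read after 48 hours by BrdU-incorporation ELISA.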

IFN-γ = IFN-γ production by PHA-stimulated human PBMC (OptEIA human IFN-g ELISA); conditions: read-out: IC50 (IFNγ)
Summary of the method: (§1)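 Supernatant cytokine levels are read by bead-based Luminex or sandwich ELISA after 48 h culture of PHA-stimulated (2 μg/ml) human PBMC with compound. Cells are seeded at 1×10^5 per well; IC50 values derive from semilogarithmic dilution series.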

IL-17FF = IL-17FF production by PHA-stimulated human PBMC (human IL-17F ELI-Pair); conditions: read-out: IC50 (IL-17FF)
Summary of the method: as §1

[2] = PHA-stimulated human PBMC, 48 hours, column C
[3] = PHA-stimulated human PBMC, 48 hours, column B

SMILES	pIC50 (IFN-γ; [2])	pIC50 (IL-17FF; [3])	pIC50 [1]	pIC50 (IFN-γ; Homo sapiens, PBMC, 48 h)	pIC50 (IL-17FF; Homo sapiens, PBMC, 48 h)
CCOC(=O)c1c(-c2c(F)cccc2Cl)noc1-c1cnn(-c2ccccc2NC(C)=O)c1C(F)(F)F [IB-1]	6.00 to 7.00	5.00 to 6.00	5.00 to 6.00		
CCOC(=O)c1c(-c2c(F)cccc2Cl)noc1-c1cnn(CCOC)c1C(F)(F)F [IB-2, ethyl 3-(2-chloro-6-fluorophenyl)-5-(l-(2-methoxyethyl)-5-(trifluoromethyl)-1H-pyrazol-4-yl)isoxazole-4-carboxylate]	6.00 to 7.00	6.00 to 7.00	5.00 to 6.00		
CCOC(=O)c1c(-c2ccncc2F)noc1-c1cnn(-c2ccncc2)c1C(F)(F)F [IB-3, ethyl 3-(3-fluoropyridin-4-yl)-5-(1-(pyridin-4-yl)-5-(trifluoromethyl)-1H-pyrazol-4-yl)isoxazole-4-carboxylate]	7.00 to 8.00	6.00 to 7.00	6.00 to 7.00		
CCOC(=O)c1c(-c2ccncc2F)noc1-c1cnn(-c2cccc(Cl)c2)c1C(F)(F)F [IB-4, ethyl 5-(1-(3-chlorophenyl)-5-(trifluoromethyl)-1H-pyrazol-4-yl)-3-(3-fluoropyridin-4-yl)isoxazole-4-carboxylate]	6.00 to 7.00	6.00 to 7.00	5.00 to 6.00		
CCOC(=O)c1c(-c2ccncc2F)noc1-c1cnn(-c2cccc(NC(C)=O)c2)c1C(F)(F)F [IB-6, ethyl 5-(1-(3-acetamidophenyl)-5-(trifluoromethyl)-1H-pyrazol-4-yl)-3-(3-fluoropyridin-4-yl)isoxazole-4-carboxylate]	> 8.00	7.00 to 8.00	6.00 to 7.00		
CCOC(=O)c1c(-c2c(Cl)cncc2Cl)noc1-c1cnn(-c2ccccc2F)c1C(F)(F)F [IB-9, ethyl 3-(3,5-dichloropyridin-4-yl)-5-(1-(2-fluorophenyl)-5-(trifluoromethyl)-1H-pyrazol-4-yl)isoxazole-4-carboxylate]	7.00 to 8.00	7.00 to 8.00	7.00 to 8.00		
CCOC(=O)c1c(-c2c(Cl)cncc2Cl)noc1-c1cnn(-c2ccncc2)c1C(F)(F)F [IB-10, ethyl 3-(3,5-dichloropyridin-4-yl)-5-(1-(pyridin-4-yl)-5-(trifluoromethyl)-1H-pyrazol-4-yl)isoxazole-4-carboxylate]	6.00 to 7.00	6.00 to 7.00	6.00 to 7.00		
CCOC(=O)c1c(-c2c(Cl)cncc2Cl)noc1-c1cnn(-c2cccc(NC(C)=O)c2)c1C(F)(F)F [IB-11, ethyl 5-(1-(3-acetamidophenyl)-5-(trifluoromethyl)-1H-pyrazol-4-yl)-3-(3,5-dichloropyridin-4-yl)isoxazole-4-carboxylate]	7.00 to 8.00	7.00 to 8.00	6.00 to 7.00		
CCOC(=O)c1c(-c2ccncc2F)noc1-c1cnn(-c2ccccc2Cl)c1C(F)(F)F [IB-13, ethyl 5-(1-(2-chlorophenyl)-5-(trifluoromethyl)-1H-pyrazol-4-yl)-3-(3-fluoropyridin-4-yl)isoxazole-4-carboxylate]	7.00 to 8.00	7.00 to 8.00	7.00 to 8.00		
CCOC(=O)c1c(-c2ccncc2F)noc1-c1cnn(-c2cccc(F)c2)c1C(F)(F)F [IB-14, ethyl 5-(1-(3-fluorophenyl)-5-(trifluoromethyl)-1H-pyrazol-4-yl)-3-(3-fluoropyridin-4-yl)isoxazole-4-carboxylate]	5.00 to 6.00	6.00 to 7.00	5.00 to 6.00		
CCOC(=O)c1c(-c2ccncc2F)noc1-c1cnn(-c2ccccc2F)c1C(F)(F)F [IB-15, ethyl 5-(1-(2-fluorophenyl)-5-(trifluoromethyl)-1H-pyrazol-4-yl)-3-(3-fluoropyridin-4-yl)isoxazole-4-carboxylate]	6.00 to 7.00	5.00 to 6.00	6.00 to 7.00		
CCOC(=O)c1c(-c2c(Cl)cncc2Cl)noc1-c1cnn(-c2ccccc2Cl)c1C(F)(F)F [IB-16, ethyl 5-(1-(2-chlorophenyl)-5-(trifluoromethyl)-1H-pyrazol-4-yl)-3-(3,5-dichloropyridin-4-yl)isoxazole-4-carboxylate]	5.00 to 6.00	6.00 to 7.00	5.00 to 6.00		
CCOC(=O)c1c(-c2ccncc2F)noc1-c1cnn(-c2cccnc2)c1C(F)(F)F [IB-17, ethyl 3-(3-fluoropyridin-4-yl)-5-(1-(pyridin-3-yl)-5-(trifluoromethyl)-1H-pyrazol-4-yl)isoxazole-4-carboxylate]	5.00 to 6.00	6.00 to 7.00	5.00 to 6.00		
COC(=O)c1c(-c2c(F)cccc2Cl)noc1-c1cnn(-c2ccccc2Cl)c1C(F)(F)F [IB-20, methyl 3-(2-chloro-6-fluorophenyl)-5-(1-(2-chlorophenyl)-5-(trifluoromethyl)-1H-pyrazol-4-yl)isoxazole-4-carboxylate]	5.00 to 6.00	5.00 to 6.00	5.00 to 6.00		
Fc1ccc(-n2ncc(-c3onc(-c4c(F)cccc4Cl)c3Br)c2C(F)(F)F)c(F)c1 [IB-24, 4-bromo-3-(2-chloro-6-fluorophenyl)-5-(1-(2,4-difluorophenyl)-5-(trifluoromethyl)-1H-pyrazol-4-yl)isoxazole]	5.00 to 6.00	5.00 to 6.00	5.00 to 6.00		
Fc1cc(F)cc(-n2ncc(-c3onc(-c4c(F)cccc4Cl)c3Br)c2C(F)(F)F)c1 [IB-27, 4-bromo-3-(2-chloro-6-fluorophenyl)-5-(1-(3,5-difluorophenyl)-5-(trifluoromethyl)-1H-pyrazol-4-yl)isoxazole]	6.00 to 7.00	6.00 to 7.00	6.00 to 7.00		
CC(C)OC(=O)c1c(-c2c(F)cccc2Cl)noc1-c1cnn(-c2cccc(Cl)c2)c1C(F)(F)F [IB-31, isopropyl 3-(2-chloro-6-fluorophenyl)-5-(1-(3-chlorophenyl)-5-(trifluoromethyl)-1H-pyrazol-4-yl)isoxazole-4-carboxylate]	> 8.00	> 8.00	> 8.00		
CCOC(=O)c1c(-c2c(F)cccc2Cl)noc1-c1cnn(-c2cccc(C#N)c2)c1C(F)(F)F [IB-32, ethyl 3-(2-chloro-6-fluorophenyl)-5-(1-(3-cyanophenyl)-5-(trifluoromethyl)-1H-pyrazol-4-yl)isoxazole-4-carboxylate]	> 8.00	> 8.00	7.00 to 8.00		
CCOC(=O)c1c(-c2c(F)cccc2Cl)noc1-c1cnn(-c2ccccc2Cl)c1C(F)(F)F [IB-33, ethyl 3-(2-chloro-6-fluorophenyl)-5-(1-(2-chlorophenyl)-5-(trifluoromethyl)-1H-pyrazol-4-yl)isoxazole-4-carboxylate]			6.00 to 7.00	6.00 to 7.00	6.00 to 7.00

Further lines, with some results ahead:

pIC50 (IFN-γ; [2])	pIC50 (IL-17FF; [3])	SMILES	pIC50 [1]	pIC50 (IFN-γ; Homo sapiens, PBMC, 48 h)	pIC50 (IL-17FF; Homo sapiens, PBMC, 48 h)
6.00 to 7.00	5.00 to 6.00	CCOC(=O)c1c(-c2c(Cl)cncc2Cl)noc1-c1cnn(-c2ccccn2)c1C(F)(F)F [IB-5, ethyl 3-(3,5-dichloropyridin-4-yl)-5-(1-(pyridin-2-yl)-5-(trifluoromethyl)-1H-pyrazol-4-yl)isoxazole-4-carboxylate]	5.00 to 6.00		
6.00 to 7.00	5.00 to 6.00	CCOC(=O)c1c(-c2c(Cl)cncc2Cl)noc1-c1cnn(-c2cccc(Cl)c2)c1C(F)(F)F [IB-7, ethyl 5-(1-(3-chlorophenyl)-5-(trifluoromethyl)-1H-pyrazol-4-yl)-3-(3,5-dichloropyridin-4-yl)isoxazole-4-carboxylate]	5.00 to 6.00		
5.00 to 6.00	5.00 to 6.00	CCOC(=O)c1c(-c2ccncc2F)noc1-c1cnn(-c2ccccn2)c1C(F)(F)F [IB-8]	5.00 to 6.00		
6.00 to 7.00	7.00 to 8.00	CCOC(=O)c1c(-c2c(Cl)cncc2Cl)noc1-c1cnn(-c2cccnc2)c1C(F)(F)F [IB-12, ethyl 3-(3,5-dichloropyridin-4-yl)-5-(1-(pyridin-3-yl)-5-(trifluoromethyl)-1H-pyrazol-4-yl)isoxazole-4-carboxylate]	6.00 to 7.00		
6.00 to 7.00	6.00 to 7.00	COC(=O)c1c(-c2c(F)cccc2Cl)noc1-c1cnn(-c2cccc(F)c2)c1 [IB-21, methyl 3-(2-chloro-6-fluorophenyl)-5-(1-(3-fluorophenyl)-1H-pyrazol-4-yl)isoxazole-4-carboxylate]	6.00 to 7.00		
5.00 to 6.00	5.00 to 6.00	O=C(Nc1c(-c2c(F)cccc2Cl)noc1-c1cnn(-c2cccc(F)c2)c1C(F)(F)F)C(F)(F)F [IB-22, N-{3-(2-chloro-6-fluorophenyl)-5-[1-(3-fluorophenyl)-5-(trifluoromethyl)-1H-pyrazol-4-yl]-1,2-oxazol-4-yl}-2,2,2-trifluoroacetamide]	5.00 to 6.00		
6.00 to 7.00	6.00 to 7.00	Fc1ccc(-n2ncc(-c3onc(-c4c(F)cccc4Cl)c3Br)c2C(F)(F)F)cc1 [IB-28, 4-bromo-3-(2-chloro-6-fluorophenyl)-5-(1-(4-fluorophenyl)-5-(trifluoromethyl)-1H-pyrazol-4-yl)isoxazole]	6.00 to 7.00		
6.00 to 7.00	6.00 to 7.00	COC(=O)c1c(-c2ccccc2)noc1-c1cnn(-c2cccc(Cl)c2)c1C(F)(F)F [IB-30, methyl 5-(1-(3-chlorophenyl)-5-(trifluoromethyl)-1H-pyrazol-4-yl)-3-phenylisoxazole-4-carboxylate]	6.00 to 7.00		
6.00 to 7.00	6.00 to 7.00	O=C(c1c(-c2c(F)cccc2Cl)noc1-c1cnn(-c2cccc(Cl)c2)c1C(F)(F)F)N1CCOCC1 [IB-35, (3-(2-chloro-6-fluorophenyl)-5-(1-(3-chlorophenyl)-5-(trifluoromethyl)-1H-pyrazol-4-yl)isoxazol-4-yl)(morpholino)methanone]	5.00 to 6.00		
